Counter-ions that a name gives are not always drawn.
Target: T1, Nav1.7 (or SCN9A) channel (Homo sapiens, UniProt Q15858)
T1 construct: expressed in transfected cells
Assay: Nav1.7 (hSCN9A) PatchXpress electrophysiology assay
Type: cell-based
Details: estimated IC50 calculated from single point electrophysiology data; PatchXpress platform; HEK cells stably expressing hSCN9A; held at V1/2 of inactivation; read-out: Nav1.7 EIC50
Description: The ability of the compounds of formula (I) to block the Nav1.7 (or SCN9A) channel were measured using the assay described below.
Human Embryonic Kidney (HEK) cells were transfected with an hSCN9A construct using lipofectamine reagent (Invitrogen), using standard techniques. Cells stably expressing the hSCN9A constructs were identified by their resistance to G-418 (400 μg/ml). Clones were screened for expression using the whole-cell voltage-clamp technique.
HEK cells stably transfected with hSCN9A were maintained in DMEM medium supplemented with 10% heat-inactivated fetal bovine serum and 400 μg/ml G-418 in an incubator at 37° C. with a humidified atmosphere of 10% CO2. For HTS, cells were harvested from flasks by trypsinization and replated in an appropriate multi-well plate (typically 96 or 384 wells/plate) such that confluence would be achieved within 24 hours of plating. For electrophysiological studies, cells were removed from the culture flask by brief trypsinization and re-plated at low density onto glass cover slips. Cells were typically used for electrophysiological experiments within 24 to 72 hours after plating.
Cover slips containing HEK cells expressing hSCN9A were placed in a bath on the stage of an inverted microscope and perfused (approximately 1 ml/minutes) with extracellular solution of the following composition: 138 mM NaCl, 2 mM CaCl2, 5.4 mM KCl, 1 mM MgCl2, 10 mM glucose, and 10 mM HEPES, pH 7.4, with NaOH. […] The osmolarity of the extracellular and intracellular solutions was 300 mOsm/kg and 295 mOsm/kg, respectively. All recordings were made at room temperature (22-24° C.) using AXOPATCH 200B amplifiers and PCLAMP software (Axon Instruments, Burlingame, Calif.).
hSCN9A currents in HEK cells were measured using the whole-cell configuration of the patch-clamp technique (Hamill et al., 1981). Uncompensated series resistance was typically 2 to 5 mega ohms and >85% series resistance compensation was routinely achieved. As a result, voltage errors were negligible and no correction was applied. Current records were acquired at 20 to 50 KHz and filtered at 5 to 10 KHz.
HEK cells stably transfected with hSCN9A were viewed under Hoffman contrast optics and placed in front of an array of flow pipes emitting either control or compound-containing extracellular solutions. All compounds were dissolved in dimethyl sulfoxide to make 10 mM stock solutions, which were then diluted into extracellular solution to attain the final concentrations desired. […] The voltage-dependence of inactivation was determined by applying a series of depolarizing prepulses (8 sec long in 10 mV increments) from a negative holding potential. The voltage was then immediately stepped to 0 mV to assess the magnitude of the sodium current. Currents elicited at 0 mV were plotted as a function of prepulse potential to allow estimation of the voltage at which 50% of the channels were inactivated (midpoint of inactivation or V½). Compounds were tested for their ability to inhibit hSCN9A sodium channels by activating the channel with a 20 msec voltage step to 0 mV following an 8 second conditioning prepulse to the empirically determined V½. Compound effect (% inhibition) was determined by difference in current amplitude before and after application of test compounds. For ease of comparison, “estimated IC-50” (EIC50) values were calculated from single point electrophysiology data by the following equation, (tested concentration, uM)×(100-% inhibition/% inhibition). Inhibition values <20% and >80% were excluded from the calculation.
Electrophysiological assays were conducted with PatchXpress 7000 hardware and associated software (Molecular Devices Corp). All assay buffers and solutions were identical to those used in conventional whole-cell voltage clamp experiments described above. hSCN9A cells were grown as above to 50%-80% confluency and harvested by trypsinization. […]

T1 sequence (Q15858 whole entry): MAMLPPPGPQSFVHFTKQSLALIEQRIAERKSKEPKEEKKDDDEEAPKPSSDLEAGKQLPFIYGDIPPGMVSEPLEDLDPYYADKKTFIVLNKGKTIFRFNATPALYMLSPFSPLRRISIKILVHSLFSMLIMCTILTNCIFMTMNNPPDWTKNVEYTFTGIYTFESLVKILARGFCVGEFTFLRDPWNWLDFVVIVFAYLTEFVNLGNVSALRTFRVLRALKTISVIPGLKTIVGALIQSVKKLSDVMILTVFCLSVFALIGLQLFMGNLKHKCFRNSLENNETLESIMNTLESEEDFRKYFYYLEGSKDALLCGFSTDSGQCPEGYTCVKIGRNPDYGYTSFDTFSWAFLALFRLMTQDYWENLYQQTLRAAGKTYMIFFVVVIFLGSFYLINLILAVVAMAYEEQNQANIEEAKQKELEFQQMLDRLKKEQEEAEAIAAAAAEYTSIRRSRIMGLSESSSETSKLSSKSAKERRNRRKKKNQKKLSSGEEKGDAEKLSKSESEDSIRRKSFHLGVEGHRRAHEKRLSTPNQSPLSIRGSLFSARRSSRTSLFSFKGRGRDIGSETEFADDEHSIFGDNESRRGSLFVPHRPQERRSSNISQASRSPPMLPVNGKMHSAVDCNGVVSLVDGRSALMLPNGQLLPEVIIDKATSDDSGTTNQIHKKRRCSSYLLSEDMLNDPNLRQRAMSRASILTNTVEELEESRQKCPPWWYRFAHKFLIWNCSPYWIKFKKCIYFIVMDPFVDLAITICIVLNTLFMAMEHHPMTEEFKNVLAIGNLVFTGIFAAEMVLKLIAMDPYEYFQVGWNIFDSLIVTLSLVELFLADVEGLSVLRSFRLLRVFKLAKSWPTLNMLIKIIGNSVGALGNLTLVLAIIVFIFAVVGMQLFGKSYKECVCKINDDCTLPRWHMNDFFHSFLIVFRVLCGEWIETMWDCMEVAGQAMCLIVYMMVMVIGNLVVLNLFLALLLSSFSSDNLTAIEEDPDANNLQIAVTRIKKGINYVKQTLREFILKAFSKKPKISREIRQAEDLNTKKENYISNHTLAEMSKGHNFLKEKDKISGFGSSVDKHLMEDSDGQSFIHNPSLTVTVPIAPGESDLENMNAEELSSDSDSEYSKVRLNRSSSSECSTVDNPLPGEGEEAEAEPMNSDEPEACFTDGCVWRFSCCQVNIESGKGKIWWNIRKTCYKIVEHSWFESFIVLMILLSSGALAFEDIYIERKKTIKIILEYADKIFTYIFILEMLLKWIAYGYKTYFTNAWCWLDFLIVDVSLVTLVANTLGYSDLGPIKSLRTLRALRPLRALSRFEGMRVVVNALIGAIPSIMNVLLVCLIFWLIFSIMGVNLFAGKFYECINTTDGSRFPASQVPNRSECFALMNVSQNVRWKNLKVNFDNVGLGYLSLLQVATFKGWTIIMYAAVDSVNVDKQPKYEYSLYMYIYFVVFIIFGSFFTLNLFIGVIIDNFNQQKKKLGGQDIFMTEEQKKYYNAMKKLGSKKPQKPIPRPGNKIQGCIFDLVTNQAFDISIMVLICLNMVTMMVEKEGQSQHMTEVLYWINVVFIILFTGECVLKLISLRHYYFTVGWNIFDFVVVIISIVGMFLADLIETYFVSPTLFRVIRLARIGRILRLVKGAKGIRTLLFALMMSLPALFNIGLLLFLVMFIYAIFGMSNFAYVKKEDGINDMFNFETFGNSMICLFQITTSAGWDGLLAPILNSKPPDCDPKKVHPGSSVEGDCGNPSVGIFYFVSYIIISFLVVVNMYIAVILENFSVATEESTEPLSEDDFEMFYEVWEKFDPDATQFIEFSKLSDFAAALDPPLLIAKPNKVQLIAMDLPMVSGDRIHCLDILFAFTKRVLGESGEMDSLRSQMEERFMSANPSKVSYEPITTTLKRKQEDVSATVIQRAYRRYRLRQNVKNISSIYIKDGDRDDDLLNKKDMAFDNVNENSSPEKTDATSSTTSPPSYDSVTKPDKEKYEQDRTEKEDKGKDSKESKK

With `O=S(=O)(Nc1nncs1)c1cc(Cl)c(Sc2ccc(C(F)(F)F)cc2-c2ccnnc2)cc1F` [Example 19, 5-Chloro-2-fluoro-4-{[2-pyridazin-4-yl-4-(trifluoromethyl)phenyl]thio}-N-1,3,4-thiadiazol-2-ylbenzenesulfonamide] the IC50 was 45 nM.

`COc1cccc(Sc2cc(F)c(S(=O)(=O)Nc3nncs3)cc2Cl)c1` [Example 4, 5-chloro-2-fluoro-4-[(3-methoxyphenyl)thio]-N-1,3,4-thiadiazol-2-ylbenzenesulfonamide] was tested, and the IC50 was 1900 nM.

Compound `Nc1cc(-c2cc(C(F)(F)F)ccc2Sc2cc(F)c(S(=O)(=O)Nc3ncccn3)cc2Cl)ccn1` [Example 24, 4-{[2-(2-Aminopyridin-4-yl)-4-(trifluoromethyl)phenyl]thio}-5-chloro-2-fluoro-N-pyrimidin-2-ylbenzenesulfonamide] has an IC50 of 72 nM.

Compound `Nc1cc(-c2cc(C(F)(F)F)ccc2Sc2cc(F)c(S(=O)(=O)Nc3nncs3)cc2Cl)ccn1` [Example 20, 4-{[2-(2-Aminopyridin-4-yl)-4-(trifluoromethyl)phenyl]thio}-5-chloro-2-fluoro-N-1,3,4-thiadiazol-2-ylbenzenesulfonamide hydrochloride] has an IC50 of 33 nM.

In the case of `O=S(=O)(Nc1nncs1)c1cc(Cl)c(Sc2ccccc2F)cc1F` [Example 7, 5-chloro-2-fluoro-4-[(2-fluorophenyl)thio]-N-1,3,4-thiadiazol-2-ylbenzenesulfonamide], the IC50 is reported as 3700 nM.

For `COc1ccc(Sc2cc(F)c(S(=O)(=O)Nc3nncs3)cc2Cl)cc1` [Example 2, 5-Chloro-2-fluoro-4-[(4-methoxyphenyl)thio]-N-1,3,4-thiadiazol-2-ylbenzenesulfonamide], the IC50 was 2100 nM.

With `COc1cccc(Sc2ccc(S(=O)(=O)Nc3ncns3)cc2C#N)c1` [Example 3, 3-Cyano-4-[(3-methoxyphenyl)thio]-N-1,2,4-thiadiazol-5-ylbenzenesulfonamide] the IC50 was 1000 nM.

In the case of `N#Cc1cc(S(=O)(=O)Nc2ncns2)ccc1Sc1ccccc1C(F)(F)F` [Example 16, 3-Cyano-N-1,2,4-thiadiazol-5-yl-4-{[2-(trifluoromethyl)phenyl]thio}benzenesulfonamide], the IC50 is reported as 930 nM.

`N#Cc1cc(S(=O)(=O)Nc2ncns2)ccc1Sc1ccc(C(F)(F)F)cc1-c1ccnnc1` [Example 18, 3-Cyano-4-{[2-pyridazin-4-yl-4-(trifluoromethyl)phenyl]thio}-N-1,2,4-thiadiazol-5-ylbenzenesulfonamide] showed an IC50 of 70 nM.

`O=S(=O)(Nc1nncs1)c1cc(Cl)c(Sc2cccc(C(F)(F)F)c2)cc1F` [Example 1, 5-Chloro-2-fluoro-N-1,3,4-thiadiazol-2-yl-4-{[3-(trifluoromethyl)phenyl]thio}benzenesulfonamide] gave an IC50 of 930 nM.

In the case of `O=S(=O)(Nc1nncs1)c1cc(Cl)c(Sc2ccccc2C(F)(F)F)cc1F` [Example 5, 5-chloro-2-fluoro-N-1,3,4-thiadiazol-2-yl-4-{[2-(trifluoromethyl)phenyl]thio}benzenesulfonamide], the IC50 is reported as 5080 nM.

`N#Cc1cc(S(=O)(=O)Nc2ncns2)ccc1Sc1ccc(C(F)(F)F)cc1` [Example 14, 3-cyano-N-1,2,4-thiadiazol-5-yl-4-{[4-(trifluoromethyl)phenyl]thio}benzenesulfonamide] was tested, and the IC50 was 190 nM.

For `N#Cc1cc(S(=O)(=O)Nc2ncns2)ccc1Sc1ccccc1F` [Example 15, 3-Cyano-4-[(2-fluorophenyl)thio]-N-1,2,4-thiadiazol-5-ylbenzenesulfonamide], the IC50 was 920 nM.

Work on `N#Cc1cc(S(=O)(=O)Nc2ncns2)ccc1Sc1ccc(F)c(F)c1` [Example 17, 3-Cyano-4-[(3,4-difluorophenyl)thio]-N-1,2,4-thiadiazol-5-ylbenzenesulfonamide] yielded an IC50 of 2200 nM.

For `COc1ccccc1Sc1ccc(S(=O)(=O)Nc2ncns2)cc1C#N` [Example 12, 3-cyano-4-[(2-methoxyphenyl)thio]-N-1,2,4-thiadiazol-5-ylbenzenesulfonamide], the IC50 was 320 nM.

Work on `O=S(=O)(Nc1nncs1)c1cc(Cl)c(Sc2cccc(F)c2)cc1F` [Example 6, 5-chloro-2-fluoro-4-[(3-fluorophenyl)thio]-N-1,3,4-thiadiazol-2-ylbenzenesulfonamide] yielded an IC50 of 3300 nM.

With `COc1ccccc1Sc1cc(F)c(S(=O)(=O)Nc2nncs2)cc1Cl` [Example 8, 5-chloro-2-fluoro-4-[(2-methoxyphenyl)thio]-N-1,3,4-thiadiazol-2-ylbenzenesulfonamide] the IC50 was 250 nM.

`O=S(=O)(Nc1nncs1)c1cc(Cl)c(Sc2ccc(C(F)(F)F)cc2)cc1F` [Example 10, 5-chloro-2-fluoro-N-1,3,4-thiadiazol-2-yl-4-{[4-(trifluoromethyl)phenyl]thio}benzenesulfonamide] showed an IC50 of 5200 nM.

`N#Cc1cc(S(=O)(=O)Nc2ncns2)ccc1Cc1ccc(C(F)(F)F)cc1-c1ccnnc1` [Example 22, 3-Cyano-4-[2-pyridazin-4-yl-4-(trifluoromethyl)benzyl]-N-1,2,4-thiadiazol-5-ylbenzenesulfonamide] was tested, and the IC50 was 140 nM.

With `O=S(=O)(Nc1nncs1)c1cc(Cl)c(Sc2ccc(F)c(F)c2)cc1F` [Example 9, 5-chloro-4-[(3,4-difluorophenyl)thio]-2-fluoro-N-1,3,4-thiadiazol-2-ylbenzenesulfonamide] the IC50 was 2300 nM.

`N#Cc1cc(S(=O)(=O)Nc2ncns2)ccc1Sc1cccc(C(F)(F)F)c1` [Example 13, 3-cyano-N-1,2,4-thiadiazol-5-yl-4-{[3-(trifluoromethyl)phenyl]thio}benzenesulfonamide] was tested, and the IC50 was 840 nM.

`COc1cc(C(F)(F)F)ccc1Cc1ccc(S(=O)(=O)Nc2ncns2)cc1C#N` [Example 21, 3-Cyano-4-[2-methoxy-4-(trifluoromethyl)benzyl]-N-1,2,4-thiadiazol-5-ylbenzenesulfonamide] showed an IC50 of 5.8 nM.

Compound `COc1ccc(Sc2ccc(S(=O)(=O)Nc3ncns3)cc2C#N)cc1` [Example 11, 3-cyano-4-[(4-methoxyphenyl)thio]-N-1,2,4-thiadiazol-5-ylbenzenesulfonamide] has an IC50 of over 3000 nM.
